These results are taken from patent publication US4737517A, “Coumarin derivatives, pharmaceutical compositions containing the same, and the use thereof in the treatment of cancer” (FIDIA, S.p.A., priority 1983, dated 1988).

Read-outs that look alike come from different tables or passages of the source.

The test system of data set [1] is platelet hyper-aggregation induced by ADP. The data set can be described thus: Inhibition of ADP-induced platelet hyperaggregation in vitro (Born's method, aggregometer ELVI 840). Particulars: Oryctolagus cuniculus, 0.5 h, read-out: Inhibition of platelet hyper-aggregation induced by ADP. The format is cell-based, New Zealand rabbits. Here is the method: Two separate centrifugations are effected (at 1000 rpm and at 6000 rpm), thus obtaining PRP ([…]) and PPP ([…]); the first is diluted with the second in order to obtain a platelet concentration of 300,000 per mm^3 (the count is effected in a Buerker apparatus). The compounds with a platelet antiaggregating activity of the present invention are added at the desired concentrations and incubated for 30 minutes at 37° C. with the aggregating agents. […] The various compounds represented by the numbers in the first column are identifiable by the numbers in the second column which refer to the examples described below in this specification.

For data set [2], the system named is coagulation. Kind of data set: Thrombotest on capillary blood (anticoagulating effect). It counts as in vivo, mice (C57B1/6J). As to conditions: oral, controls 31.4 ± 1.7. Here is the method: In a separate experiment, the anticoagulating activity of the compounds is verified on the same strain of mice at the same doses used for antimetastatic activity evaluation.
The effect on coagulation is measured by a thrombotest on capillary blood taken from the retroorbital cavity (Owren, P. A. et al. Lancet ii, 754-758, 1959).
(§1) The anticoagulating effect measured by the "thrombotest", the antitumor effect measured by the decrease in weight of the primary tumor and the antimetastatic effect shown as the number of metasteses present in the lungs, are reported in Table 2. While the antitumor and antimetastatic effects of Warfarin and the two new products according to the present invention are roughly equal, the strong anticoagulating effect is absent in the two new products of the invention. This is a completely unexpected result.

The subject of data set [3] is 3 LL carcinoma cells (Lewis lung carcinoma). The data set can be described thus: Antitumor and antimetastatic activity in mice implanted with 3 LL Lewis lung carcinoma. It counts as in vivo, male mice of the C57B1/6J strain. Particulars: oral; for antitumoral and antimetastatic activity (in words): in vivo on mice; for No. of metastases: lungs, controls 21.8 ± 4.9; for No. of metastases / Primary Tumor Weight: 25th day after transplant; for Primary Tumor Weight: controls 9087 ± 386. Here is the method:
This activity is to be seen for instance after administration of doses of between 0.2 mg/kg and 10 mg/kg by the oral route, as illustrated by the following experiments.
1×10^5 3 LL carcinoma cells (Lewis lung carcinoma) are implanted by intramuscular injection in the paws of male mice of the C57B1/6J strain, weighing about 20-22 g. This operation is effected as described in the literature (Poggi A. et al. Cancer Res. 37, 272-277, 1977). The growth of the tumor is observed until the 25th day after transplant. On this day the animals are sacrificed and the primary tumor and lungs are removed in order to evaluate the growth of the primary tumor and the number of metastases. Pharmacological treatment by the oral route begins 2 days before transplant of the tumor and continues until sacrifice. The substances are dissolved in tap water and are changed every 24 hours.
Table 2 reports the results obtained with the two coumarin derivatives 19 and 26, previously mentioned in comparison to Warfarin, the well-known […] and antimetastatic compound, which is also a coumarin derivative. Warfarin's antimetastatic activity is widely documented both experimentally (Zacharski, L. R. et al. Cancer 44, 732-741, 1979 and Poggi, A. et al. Lancet i 163-164, 1978) and clinically (Zacharski, L. R. et al. J. Am. Med. Assoc. 245, 831-835, 1981). […] This effect is measured by the number of metastases (Zacharski, L. R. et al. Cancer 44, 732-741, 1979 and Poggi, A. et al. Lancet i 163-164, 1978).
as §1

Data set [4] in a line: Acute toxicity in the rat, oral. The arrangement: species or system rat (Sprague Dawley). Particulars: in vivo, aqueous solution, up to 14 days, Litchfield and Wilcoxon. Here is the method:
Acute toxicity in the rat: groups of Sprague Dawley rats (male+female) are treated with graduated doses ranging from 0.125 g/kg of body weight to 10 g/kg of body weight of the above mentioned compounds in aqueous solution. The compounds are administered orally by intubation. Subsequent death may be immediate or may occur at any time up to 14 days after treatment.
The lethal dose 50 (LD50), that is, the dose which causes the death of 50% of the animals, is evaluated by the method of Litchfield and Wilcoxon (J. Pharmacol. Ex. Ther. 96, 99-113, 1949).

The nature of data set [5]: Acute toxicity in the mouse, oral. The arrangement: species or system mouse (Swiss). Particulars: in vivo, aqueous solution, up to 14 days, Litchfield and Wilcoxon. Here is the method: Acute toxicity in the mouse: groups of Swiss mice (male+female) are treated with graduated doses ranging from 0.125 g/kg to 5 g/kg of body weight with compounds 19 to 26. The compounds are administered orally by intubation and dissolved in water.
Subsequent death may be immediate or may occur at any time up to 14 days after treatment. The lethal dose 50 (LD50), that is, the dose which causes the death of 50% of the animals, is evaluated by the method of Litchfield and Wilcoxon (J. Pharmacol. Exp. Ther. 96, 99-113, 1949).

Data set [6] concerns 3 LL carcinoma cells (Lewis lung carcinoma). Particulars: number of metastases; mice of the C57B1/6J strain; cited from earlier work.
Data set [7] concerns lung carcinoma. Particulars: cited from earlier work.
[8] abbreviates: 1st adminis. 1.5 mg/kg, 2nd adminis. 0.3 mg/kg.
[9] abbreviates: 1st adminis. 2.1 mg/kg, 2nd adminis. 0.5 mg/kg.

In the case of `C=CCc1c(O)c(CN(C)C)cc2c(C)cc(=O)oc12.Cl` [Compound 19, 4-methyl-6-dimethylaminomethyl-7-hydroxy-8-allylcumarin hydrochloride], in data set [1] (ADP 20 μg/ml, 100 γ/ml of active compound, rabbit PRP, incubated 30 minutes at 37° C), the inhibition at 100 µg/mL was 40%. This compound had a Thrombotest in data set [2] (setting [8]) of 29.3 ± 1.7. Further, in data set [3], the “antitumoral and antimetastatic activity (in words)” value is “antitumoral and antimetastatic activity”. Moreover, in data set [3] (setting [8]), the No. of metastases is on record as 11.4 ± 3.3 and the “Primary Tumor Weight” value is 6731 ± 533 mg. In data set [4], this compound had a median lethal dose (LD50) at 336 h of 2000 mg/kg. The compound further registered an LD50 at 336 h in data set [5] of 1210 mg/kg.

In the case of `CC(=O)CC(c1ccccc1)c1c(O)c2ccccc2oc1=O` (centres unmarked) [Warfarin, reference compound], the Thrombotest in data set [2] (doses not given) is listed as 180. For the same compound, in data set [3] (doses not given), the No. of metastases is 12.4 ± 0.9 and the “Primary Tumor Weight” value is given as 6274 ± 690 mg. Further, the “antimetastatic effect on Lewis lung carcinoma (in words)” value in data set [6] is “has an antimetastatic effect”. Moreover, in data set [7] (human, in vivo), the “anticoagulating activity in antitumor therapy (in words)” value is “strong anticoagulating activity”. Further, the “survival time in patients with lung carcinoma (in words)” value in data set [7] (in association with chemotherapy and radiation) was “prolongs survival time”.

Regarding `C=CCc1c(O)c(CN2CCN(CCO)CC2)cc2c(C)cc(=O)oc12.ClOCl` [Compound 26, 4-methyl-6-[[4-(2-hydroxyethyl)-1-piperazinyl]methyl]-7-hydroxy-8-allylcumarin dichlorohydrate], in data set [1], the inhibition at 100 µg/mL is 23%. For the same compound, the Thrombotest in data set [2] (setting [9]) came to 33.4 ± 1.2. Besides, the “antitumoral and antimetastatic activity (in words)” value in data set [3] was “antitumoral and antimetastatic activity”. In addition, the No. of metastases in data set [3] (setting [9]) is recorded as 9.8 ± 2.8. The “Primary Tumor Weight” value in data set [3] (setting [9]) came out at 6789 ± 349 mg. In addition, the LD50 at 336 h amounted to 3160 mg/kg in data set [4] and 1950 mg/kg in data set [5].
